Literature values, collected in patent US11638718B2, “Treatment of alphavirus-induced inflammation” (priority 2016, dated 2023).

System: alphavirus
Details: earlier studies by the group (refs 30, 55-57); cited from earlier work

In the case of `CN(Cc1cnc2nc(N)nc(N)c2n1)c1ccc(C(=O)N[C@@H](CCC(=O)O)C(=O)O)cc1` [methotrexate], the “effect on alphavirus disease” value is listed as “increased the onset of RRV-induced musculoskeletal disease”.
